{
  "source": "patent US9446051B2",
  "about": "“Neuroprotection and myelin repair using nestorone®” (The Population Council, Inc., priority 2009, dated 2016)",
  "key": {"[1]": {"test_system": "neural progenitor cell (NPC)", "assay": "Neural progenitor cell proliferation, BrdU chemiluminescence ELISA", "type": "cell-based, rat", "settings": "for proliferation of progenitor cells compared with progesterone: FIG. 3 and FIG. 4; for NPC proliferation (BrdU incorporation) compared with progesterone: at 24 hours, FIGS. 6A-D", "method": "In vitro studies were carried out to determine neural progenitor cell (NPC) regeneration in rats. Cell proliferation was determined by S phase incorporation of BrdU. After 4 to 6 hours starvation (medium without supplements), rNPCs were loaded with 10 μM BrdU in the presence or absence of bFGF and varying concentrations of P4 or test progestins in unsupplemented maintenance medium for 1d. The rNPCs were then processed as described previously (1, 14). After subtracting the value of the blank (without BrdU loading), data were analyzed using a one-way ANOVA, followed by a Neuman-Keuls post hoc test."}, "[2]": {"test_system": "primary hippocampal neurons", "assay": "Neuroprotection of primary hippocampal neurons against glutamate, LDH release", "type": "cell-based", "settings": "for neuroprotective efficacy against 200 μM glutamate (LDH release) compared with progesterone: dose-response, FIGS. 7A-F", "method": "The effect of NES and other progestins on CNS plasticity and the neuroprotective efficacy against glutamate toxicity has also been evaluated. LDH was measured, as a well-accepted assay, to determine such effect after exposure of the cells to glutamate, and the neuronal viability was assessed under the action of various progestins.\nComparisons of neuroprotection against neurodegenerative insults were carried out. Efficacy was determined in connection with the protection of primary hippocampal neurons against degeneration induced by excitoxic glutamate. Hippocampal neuronal cultures grown on […] culture plates for 7d in vitro were pretreated with vehicle alone or test compounds, followed by exposure to 200 μM glutamate as previously described (13). After glutamate exposure, cultures were washed with HEPES-buffered saline solution and replaced with fresh NBM containing the test compounds or combinations. Cultures were returned to the incubator and incubated for 24 hours prior to analysis of neuronal viability using colorimetric LDH release in the media. Dose-response analysis was conducted for each of the progestins tested, and the results are shown in FIGS. 7A-F. Neuroprotective efficiency was calculated as follows: NE=(Vsample−Vglutamate)/(Vsubcontrol−Vglutamate)."}, "[3]": {"test_system": "primary hippocampal neuron cultures", "settings": "cited from earlier work; for protection against glutamate toxicity: alone or in combination, 48 hours before glutamate insult"}, "[4]": {"test_system": "hippocampi of ovariectomized female Sprague Dawley rats", "type": "in vivo", "settings": "stated 'as noted above'", "method": "The impact of the combination of 17β-estradiol (E2) and various progestins on neurogenesis and cell viability […] was also carried out. Young adult ovariectomized female Sprague Dawley rates were thus divided into six groups and received injection of either E2 alone or E2 combined with one of the progestins. Hippocampi were isolated 24 hours later for Western blot analysis and flow cytometry to determine the impact of treatment on cell viability and neurogenesis respectively. The expression level of PCNA was assessed to determine the impact of the treatment compounds on entry into the cell cycle required for neurogenesis."}, "[5]": {"test_system": "androgenic, estrogenic and glucocorticoid responses", "settings": "cited from earlier work"}, "Bax/Bcl-2": {"test_system": "Bax/Bcl-2", "assay": "In vivo apoptotic activity, Bax/Bcl-2 ratio by Western blot", "source_text": "The effects of various progestins on apoptosis was studied using Western blot analysis to determine the expression level of Bax, an apoptosis mediator by […] to the mitochondria to release apoptotic factors such as cytochrome c and Bcl-2. The ratio of Bax to Bcl-2 was used as an indicator of in vivo apoptotic activity."}, "[6]": {"test_system": "hippocampus of Sprague-Dawley ovariectomized female rats", "assay": "In vivo NPC proliferation and cell viability in ovariectomized rats (Western blot, FACS of BrdU+ cells)", "parameters": "species or system rat", "settings": "for PCNA expression at the protein level: FIG. 8A", "method": "The generalized ability of the above in vitro findings to the in vivo condition were investigated. Analyses of NPC proliferation in rats and cell viability were conducted in three-month-old Sprague-Dawley ovariectomized female rats with various of the progestins. […] In order to assess the total number of BrdU+ cells, the contralateral hippocampal hemisphere used for protein analysis was fixed and processed by FACS analysis. The total number of BrdU+ cells per each hippocampus was determined and normalized to that of vehicle control. […] In order to measure cell viability in terms of promotion of mitochondrial function and reduction in oxidative damage expression of the alpha subunit of ATP synthase-Complex V (CVα) of the mitochondrial oxidative phosphorylation pathway was assessed by Western blot analysis."}, "PR^lacz mice with MCAO": {"test_system": "PR^lacz mice with MCAO", "assay": "Transient middle cerebral artery occlusion (MCAO), steroid treatment after reperfusion", "type": "in vivo, mouse", "method": "In experiments conducted using progesterone receptor (PR) deficient mice (PR^−/−) compared with PR^+/− and PR^+/+ mice and both progesterone and Nestorone® were administered after ischemia and reperfusion.\nIn order to test the effect of steroid treatments after reperfusion, adult male PR^lacz mice were anesthetized and the middle cerebral artery (MCA) was occluded for one hour with an intraluminal filament. After ligature of the left common carotid artery, a nylon monofilament coated with thermo-melting glue was introduced through an arteriotomy performed on the external carotid artery and advanced into the internal carotid artery. Occlusion of the MCA was controlled by monitoring the cerebral blood flow within the MCA territory by laser Doppler flowmetry. The filament was withdrawn one hour after occlusion to allow reperfusion, and the common carotid artery ligature was also removed. The mice were randomly and blindly assigned to either progesterone, allopregnanolone or Nestorone®, or vehicle-treated (sesame oil; sigma). All of the steroids were initially dissolved in a small volume of ethanol and further diluted in sesame oil to obtain the desired final steroid concentrations. Injections were given interperitoneally (IP) at 1, 6, and 24 hours after MCA occlusion (MCAO) according to established neuroprotective protocols. Treated mice were killed at 48 hours after MCAO.\nCerebral infarct volumes and areas were determined after triphenyltetrazolium chloride (TTC) staining of brain sections. The details of this procedure are set forth in “Progesterone Receptors: A Key For Neuroprotection In Experimental Stroke,” Endocrinology, August 2012, 153(8), pp. 1-11, which is incorporated herein by reference thereto in its entirety. […] In FIGS. 11, 12 and 13, after the administration of progesterone and Nestorone®, in neuronal density the infarct (FIG. 11) and the penumbra (FIG. 12) can clearly be shown. In FIG. 13 the decrease in […] in the penumbra after administration of progesterone and Nestorone® is also clearly shown."}, "[7]": {"test_system": "organotypic neonatal rat or mouse cerebellar slice culture", "assay": "Myelination in organotypic cerebellar slice culture, measured by myelin basic protein (MBP) immunoreactivity", "type": "cell-based", "source_text": "In experiments conducted in organotypic neonatal rat or mouse cerebellar slice culture, progesterone accelerated axon myelination (13,14)."}, "[8]": {"settings": "indicator of in vivo apoptotic activity"}},
  "data": [
    {"smiles": "C#C[C@]1(OC(C)=O)CC[C@H]2[C@@H]3CCC4=CC(=NO)CC[C@@H]4[C@H]3CC[C@@]21CC", "note": "(mixture of isomers) [norgestimate]", "values": [
      {"measurement": "proliferation of progenitor cells compared with progesterone", "setting": "[1]", "value": "more proliferative than progesterone"},
      {"measurement": "NPC proliferation (BrdU incorporation) compared with progesterone", "setting": "[1]", "value": "more potent in cell proliferation than progesterone at all concentrations"},
      {"measurement": "neuroprotective efficacy against 200 μM glutamate (LDH release) compared with progesterone", "setting": "[2]", "value": "less potent than progesterone"}
    ]},
    {"smiles": "CC(=O)[C@H]1CC[C@H]2[C@@H]3CCC4=CC(=O)CC[C@@H]4[C@H]3CC[C@]12C", "note": "[19-norprogesterone]", "values": [
      {"measurement": "protection against glutamate toxicity", "setting": "[3]", "value": "protected against glutamate toxicity"}
    ]},
    {"smiles": "CC(=O)O[C@]1(C(C)=O)CC[C@H]2[C@@H]3C[C@H](C)C4=CC(=O)CC[C@]4(C)[C@H]3CC[C@@]21C", "note": "[MPA, medroxyprogesterone acetate]", "values": [
      {"measurement": "proliferation of progenitor cells compared with progesterone", "setting": "[1]", "value": "antagonistic"},
      {"measurement": "NPC proliferation (BrdU incorporation) compared with progesterone", "setting": "[1]", "value": "significantly inhibited proliferation at multiple concentrations"},
      {"measurement": "cell proliferation", "setting": "[4]", "value": "increased cell proliferation"},
      {"measurement": "neuroprotective efficacy against 200 μM glutamate (LDH release) compared with progesterone", "setting": "[2]", "value": "less potent than progesterone"},
      {"measurement": "androgenic response", "setting": "[5]", "value": "induce androgenic responses"},
      {"measurement": "glucocorticoid response", "setting": "[5]", "value": "induces both androgenic and glucocorticoid responses"},
      {"measurement": "ratio of Bax/Bcl-2 expression", "setting": "Bax/Bcl-2; in vivo", "value": "significantly increased"},
      {"measurement": "protection against glutamate toxicity", "setting": "[3]", "value": "failed to protect against glutamate toxicity"},
      {"measurement": "effect on estrogen-induced neuroprotection when coadministered", "setting": "[3]; coadministered with 17β-E2", "value": "attenuated the estrogen-induced neuroprotection"},
      {"measurement": "total number of BrdU+ cells per hippocampus", "setting": "[6]; FACS, normalized to vehicle control, FIG. 8B", "value": "no significant effect on cell proliferation"},
      {"measurement": "PCNA expression at the protein level", "setting": "[6]; Western blot", "value": "no significant effect"},
      {"measurement": "expression of alpha subunit of ATP synthase-Complex V (CVα)", "setting": "[6]; Western blot, FIG. 8C", "value": "no significant effect"}
    ]},
    {"smiles": "C[C@]12CC[C@@H]3c4ccc(O)cc4CC[C@H]3[C@@H]1CC[C@@H]2O", "note": "[estradiol, 17β-estradiol]", "values": [
      {"measurement": "protection against glutamate toxicity", "setting": "[3]", "value": "protected against glutamate toxicity"}
    ]},
    {"smiles": "C#C[C@]1(O)CC[C@H]2[C@@H]3CCC4=CC(=O)CC[C@@H]4[C@H]3CC[C@@]21CC", "note": "[levonorgestrel]", "values": [
      {"measurement": "ratio of Bax/Bcl-2 expression", "setting": "Bax/Bcl-2; [8]", "value": "significantly increased"},
      {"measurement": "PCNA expression at the protein level", "setting": "[6]; Western blot", "value": "no significant effect"}
    ]},
    {"smiles": "C#C[C@]1(OC(C)=O)CC[C@H]2[C@@H]3CCC4=CC(=O)CC[C@@H]4[C@H]3CC[C@@]21C", "note": "[norethindrone acetate]", "values": [
      {"measurement": "proliferation of progenitor cells compared with progesterone", "setting": "[1]", "value": "antagonistic"},
      {"measurement": "NPC proliferation (BrdU incorporation) compared with progesterone", "setting": "[1]", "value": "minimal or no effect on proliferation"}
    ]},
    {"smiles": "C#C[C@]1(O)CC[C@H]2[C@@H]3CCC4=CC(=O)CC[C@@H]4[C@H]3CC[C@@]21C", "note": "[norethindrone]", "values": [
      {"measurement": "neuroprotective efficacy against 200 μM glutamate (LDH release) compared with progesterone", "setting": "[2]", "value": "less potent than progesterone"},
      {"measurement": "androgenic response", "setting": "[5]", "value": "exert androgenic and estrogenic responses"},
      {"measurement": "estrogenic response", "setting": "[5]", "value": "exert androgenic and estrogenic responses"}
    ]},
    {"smiles": "C#C[C@]1(O)CC[C@H]2[C@@H]3CCC4=C(CCC(=O)C4)[C@H]3CC[C@@]21C", "note": "[norethynodrel]", "values": [
      {"measurement": "proliferation of progenitor cells compared with progesterone", "setting": "[1]", "value": "more proliferative than progesterone"},
      {"measurement": "NPC proliferation (BrdU incorporation) compared with progesterone, high nanomolar ranges", "setting": "[1]; high nanomolar ranges", "value": "significantly more efficacious than progesterone"},
      {"measurement": "NPC proliferation (BrdU incorporation) compared with progesterone, low nanomolar range", "setting": "[1]; low nanomolar range", "value": "comparable effects to progesterone"},
      {"measurement": "neuroprotective efficacy against 200 μM glutamate (LDH release) compared with progesterone", "setting": "[2]", "value": "more potent than progesterone at minimal effective concentrations"},
      {"measurement": "androgenic response", "setting": "[5]", "value": "exert androgenic and estrogenic responses"},
      {"measurement": "estrogenic response", "setting": "[5]", "value": "exert androgenic and estrogenic responses"}
    ]},
    {"smiles": "CC(=O)[C@H]1CC[C@H]2[C@@H]3CCC4=CC(=O)CC[C@]4(C)[C@H]3CC[C@]12C", "note": "[progesterone]", "values": [
      {"measurement": "proliferation of progenitor cells compared with progesterone", "setting": "[1]", "value": "increases the proliferation"},
      {"measurement": "NPC proliferation (BrdU incorporation) compared with progesterone", "setting": "[1]", "value": "comparably efficacious at their EC100 concentrations"},
      {"measurement": "efficient neuroprotective dose", "setting": "PR^lacz mice with MCAO; after stroke", "value": 8, "unit": "mg/kg"},
      {"measurement": "microglial density in the penumbra (neuroinflammatory responses)", "setting": "PR^lacz mice with MCAO; treatment after stroke", "value": "reduced microglial density"},
      {"measurement": "neuronal density in the infarct and in the penumbra", "setting": "PR^lacz mice with MCAO; treatment after stroke", "value": "significantly increases the neuronal density"},
      {"measurement": "neuroprotective efficacy against glutamate toxicity (LDH)", "setting": "[2]; FIG. 5, NES and PROG at 10−7M", "value": "exerted the higher efficacy"},
      {"measurement": "ratio of Bax/Bcl-2 expression", "setting": "Bax/Bcl-2; [8]", "value": "no effect"},
      {"measurement": "protection against glutamate toxicity", "setting": "[3]", "value": "protected against glutamate toxicity"},
      {"measurement": "concentration of equal promyelinating activity", "setting": "[7]; NES at 20 μm as active as PROG at 50 μm (FIG. 1)", "value": 50, "unit": "μm"},
      {"measurement": "myelination in cerebellar slices from PR knockout mice", "setting": "[7]; PR knockout mice", "value": "did not increase myelination"},
      {"measurement": "myelination measured by myelin basic protein (MBP) immunoreactivity", "setting": "[7]; cerebellar slice culture", "value": "promote dose-dependent myelination"},
      {"measurement": "CDC2 protein expression", "setting": "[6]; Western blot", "value": "significantly increased"}
    ]}
  ]
}
